# Results taken from PubChem BioAssay (NCI).
#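 Briefly, cells in 96-well plates were exposed to five compound concentrations for 48 h, and endpoints were estimated by linear interpolation. Here, GI50 denotes the concentration required for 50% inhibition of growth. TGI marks complete inhibition of growth.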
# Assays:
# Assay in all cases: DTP human tumour cell line panel, 48 h
# 786-0 renal = test system: 786-0 renal
# HCC-2998 colon = test system: HCC-2998 colon
# IGROV1 ovarian = test system: IGROV1 ovarian
# M14 melanoma = test system: M14 melanoma
# OVCAR-8 ovarian = test system: OVCAR-8 ovarian
# SK-MEL-2 melanoma = test system: SK-MEL-2 melanoma
# SN12C renal = test system: SN12C renal
# SW-620 colon = test system: SW-620 colon
# CAKI-1 renal = test system: CAKI-1 renal
Structure (SMILES),TGI (786-0 renal),TGI (HCC-2998 colon),TGI (IGROV1 ovarian),TGI (M14 melanoma),TGI (OVCAR-8 ovarian),TGI (SK-MEL-2 melanoma),TGI (SN12C renal),TGI (SW-620 colon),TGI (CAKI-1 renal),GI50 (786-0 renal),GI50 (CAKI-1 renal),GI50 (HCC-2998 colon),GI50 (IGROV1 ovarian),GI50 (OVCAR-8 ovarian),GI50 (SK-MEL-2 melanoma),GI50 (SN12C renal),GI50 (M14 melanoma),GI50 (SW-620 colon)
CC(C)(C)[Si](Nc1ccccc1)(c1ccccc1)c1ccccc1,28.4 µM,30.7 µM,28.3 µM,27.5 µM,34 µM,35.8 µM,28.3 µM,33.6 µM,,,,,,,,,,
CN(C)C(=S)/N=c1\ssc(=S)n1Cc1ccccn1,29.1 µM,> 100 µM,> 100 µM,> 48.2 µM,> 100 µM,5.98 µM,> 100 µM,> 100 µM,> 100 µM,,,,,,,,,
COc1cc(CCC(=O)NS(=O)(=O)c2ccccc2)cc(OC)c1OC,> 100 µM,> 100 µM,> 100 µM,> 100 µM,> 100 µM,> 100 µM,> 100 µM,> 100 µM,> 100 µM,,,,,,,,,
O=C(Cc1ccccc1)NN1C(=O)C(Cl)C1c1ccccc1 (stereo unspecified),> 100 µM,> 100 µM,> 100 µM,> 100 µM,> 100 µM,> 100 µM,> 100 µM,> 100 µM,> 100 µM,,,,,,,,,
CCCCCCCCCCCCCCCCCCOCC1(COP(=O)([O-])OCC[N+](C)(C)C)CCCO1 (stereo unspecified),13.6 µM,4.68 µM,6.63 µM,8.59 µM,26.5 µM,22.8 µM,5.81 µM,,,,,,,,,,,
O=C(Cc1nc2ccccc2s1)C(=O)Nc1ccc(Cl)cc1Cl,> 100 µM,> 100 µM,> 100 µM,> 100 µM,> 100 µM,> 100 µM,> 100 µM,> 100 µM,,,,,,,,,,
CCCCCCCCCCCCOC(=S)NC,34.2 µM,32 µM,38.9 µM,37.1 µM,32.9 µM,28.1 µM,31.7 µM,32.6 µM,,,,,,,,,,
COc1cc(C(=O)/C=C/c2c(-c3cccs3)nc3ccccn23)cc(OC)c1OC,7.07 µM,3.37 µM,3.73 µM,,6.31 µM,4.35 µM,27 µM,,8.14 µM,2.31 µM,2.31 µM,1.96 µM,1.89 µM,1.68 µM,2.27 µM,2.44 µM,,
COc1cc(C(=C2SCCS2)c2nccc3cc(OC)c(OC)cc23)c([N+](=O)[O-])cc1OC,> 100 µM,> 100 µM,> 100 µM,> 100 µM,> 100 µM,> 100 µM,> 100 µM,> 100 µM,,,,,,,,,,
O/N=C1/C(=C/c2ccccc2)CCCC1C(NO)c1ccccc1 (stereo unspecified),> 100 µM,,> 100 µM,> 100 µM,> 100 µM,> 100 µM,> 100 µM,> 100 µM,,,,,,,,,,
CN(C(=O)C1CC1)C1C2CN3CCC(O2)C13 (stereo unspecified),> 100 µM,> 100 µM,> 100 µM,> 100 µM,,> 100 µM,> 100 µM,> 100 µM,> 100 µM,,,,,,,,,
CCCCCC/C=C/CCCCCCCc1cccc(O)c1C(=O)O,> 100 µM,,> 100 µM,> 100 µM,> 100 µM,> 100 µM,,> 100 µM,> 100 µM,,,,,,,,,
CCC[CH2][Sn]1([CH2]CCC)[O]CC([CH2][Sn]([c]2ccccc2)([c]2ccccc2)[c]2ccccc2)[O]1 (stereo unspecified),24.5 µM,22.4 µM,29.2 µM,31.4 µM,34 µM,23.4 µM,27.7 µM,15.7 µM,,11.8 µM,,10.2 µM,15.2 µM,15.2 µM,10.9 µM,14 µM,15.9 µM,3.9 µM
CC(=O)Oc1cc(OC(C)=O)c2cc3c(cc2c1OC(C)=O)C(=O)C1(CCCC1)C3=O,31.5 µM,37.2 µM,32.4 µM,32.1 µM,31.6 µM,,31.6 µM,39.4 µM,25.2 µM,,,,,,,,,
Cn1c(=O)c2[nH]cnc2n(CC(=O)O)c1=O,> 100 µM,,> 100 µM,> 100 µM,> 100 µM,> 100 µM,> 100 µM,> 100 µM,> 100 µM,,,,,,,,,
CC(=O)[CH-]C(=O)c1ccccc1.CC(=O)[CH-]C(=O)c1ccccc1.CC12CC3(C)CC(C)(C1)CC([O-])(C2)C3.CC[O-].[Ti+4],> 100 µM,,> 100 µM,32.8 µM,> 100 µM,,> 100 µM,> 100 µM,> 100 µM,29.3 µM,42.9 µM,,40.9 µM,27.7 µM,,43.5 µM,16.9 µM,32.4 µM
CC(=O)NNc1nc(C)c(C(/C=C/c2ccc(Cl)cc2)=N/NC(=S)NN)s1,> 100 µM,,> 100 µM,> 100 µM,> 100 µM,> 100 µM,> 100 µM,> 100 µM,> 100 µM,,,,,,,,,
O=C(Nc1cc([N+](=O)[O-])cc([N+](=O)[O-])c1)OC1C2CCC1C1OC1C2 (stereo unspecified),> 50 µM,> 50 µM,> 50 µM,> 50 µM,> 50 µM,> 50 µM,,> 50 µM,,,,,,,,,,
CN(/C(=N\O)c1ccccc1)c1ccccc1,89 µM,73.5 µM,,57.5 µM,64.9 µM,70.1 µM,> 100 µM,> 100 µM,> 100 µM,,,,,,,,,
